# The supplement of paper PMC10307832
# Experiments:
# Assay in all cases: relative viability (nuclei count vs DMSO), 5 days (fraction); higher = more cells survive
# Dabrafenib + Foretinib = compound: CC(C)(C)c1nc(-c2cccc(NS(=O)(=O)c3c(F)cccc3F)c2F)c(-c2ccnc(N)n2)s1 [Dabrafenib] + COc1cc2c(Oc3ccc(NC(=O)C4(C(=O)Nc5ccc(F)cc5)CC4)cc3F)ccnc2cc1OCCCN1CCOCC1 [Foretinib] (partner 0.25 µM)
# Outline: (§1)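 The day after seeding in 1536-well plates, lung cancer cell lines were treated by pin tool with a single drug, or with a fixed anchor-drug dose together with five library-drug doses (not always all listed) in √10 steps. After 5 days, a combined fix-and-stain solution (final 0.05% Triton X-100, 1% formaldehyde, 1 ug/ml Hoechst) was added. Nuclei counted on 4× images gave relative viability as treated counts over vehicle counts, reported as the median of duplicate plates.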
# VX-702 + Pemetrexed = compound: NC(=O)c1ccc(N(C(N)=O)c2c(F)cccc2F)nc1-c1ccc(F)cc1F [VX-702] + Nc1nc2[nH]cc(CCc3ccc(C(=O)N[C@@H](CCC(=O)O)C(=O)O)cc3)c2c(=O)[nH]1 [Pemetrexed] (partner 0.2 µM)
# Outline: as §1
# Dabrafenib + Luminespib = compound: CC(C)(C)c1nc(-c2cccc(NS(=O)(=O)c3c(F)cccc3F)c2F)c(-c2ccnc(N)n2)s1 [Dabrafenib] + CCNC(=O)c1noc(-c2cc(C(C)C)c(O)cc2O)c1-c1ccc(CN2CCOCC2)cc1 [Luminespib] (partner 0.01 µM)
# Outline: as §1
# VX-702 + Phenformin = compound: NC(=O)c1ccc(N(C(N)=O)c2c(F)cccc2F)nc1-c1ccc(F)cc1F [VX-702] + N=C(N)NC(=N)NCCc1ccccc1 [Phenformin] (partner 250 µM)
# Outline: as §1
# Dabrafenib + Decitabine = compound: CC(C)(C)c1nc(-c2cccc(NS(=O)(=O)c3c(F)cccc3F)c2F)c(-c2ccnc(N)n2)s1 [Dabrafenib] + Nc1ncn([C@H]2C[C@H](O)[C@@H](CO)O2)c(=O)n1 [Decitabine] (partner 2 µM)
# Outline: as §1
cell line,measurement,setting,value
SW 900,relative viability,Dabrafenib + Foretinib; first compound 0.009487 µM,0.905
same,relative viability,Dabrafenib + Foretinib; first compound 0.03 µM,0.788
same,relative viability,Dabrafenib + Foretinib; first compound 0.3 µM,0.856
same,relative viability,VX-702 + Pemetrexed; first compound 0.02 µM,0.51
same,relative viability,VX-702 + Pemetrexed; first compound 0.2 µM,0.488
same,relative viability,VX-702 + Pemetrexed; first compound 0.6325 µM,0.474
same,relative viability,VX-702 + Pemetrexed; first compound 2 µM,0.464
same,relative viability,Dabrafenib + Luminespib; first compound 0.009487 µM,0.186
same,relative viability,Dabrafenib + Luminespib; first compound 0.03 µM,0.166
same,relative viability,Dabrafenib + Luminespib; first compound 0.3 µM,0.214
same,relative viability,VX-702 + Phenformin; first compound 0.02 µM,0.634
same,relative viability,VX-702 + Phenformin; first compound 0.2 µM,0.585
same,relative viability,VX-702 + Phenformin; first compound 0.6325 µM,0.869
same,relative viability,VX-702 + Phenformin; first compound 2 µM,0.546
same,relative viability,Dabrafenib + Decitabine; first compound 0.009487 µM,0.35
same,relative viability,Dabrafenib + Decitabine; first compound 0.09487 µM,0.486
same,relative viability,Dabrafenib + Decitabine; first compound 0.3 µM,0.394
